Here are results for 6 substances from PMC3066212, “Functional Divergence among Silkworm Antimicrobial Peptide Paralogs by the Activities of Recombinant Proteins and the Induced Expression Profiles” (PLoS ONE, 2011).

Assay [1] relates to ten tested bacteria (five Gram-positive, five Gram-negative). The experiment in a line: Ultrasensitive radial diffusion, antimicrobial spectrum. It counts as cell-based. As to conditions: 5 µmol/L, 10 µL in 2.7 mm pore on LB-medium plates, 37°C 24 h, n = 3 (Fig. 3).
A further assay has as its system R. dolaanacearum. The class given is cell-based, Ralstonia dolaanacearum.
The test system of the next assay is S. aureus. The assay can be described thus: Ultrasensitive radial diffusion. It counts as cell-based, Staphylococcus aureus. As to conditions: 5 µmol/L, 10 µL, 37°C 24 h (Fig. 3). On the procedure: Figure 3 The antimicrobial spectrum of paralogs among each AMP gene family. The following microbes were used to test antimicrobial activities: Gram-positive bacteria: S. aureus (Sa), B. bombysepticus (Bb), B. subtilis (Bs), B. thuringiensis (Bt), B. thuringiensis subsp. galleriae (Btsg); Gram-negative bacteria: E. coli (Ec), S. marcescens (Sm), P. aeruginosa (Pa), X. pv. campestris (Xpc), R. dolaanacearum (Rd). Each sample (5 µmol/L, 10 µL) was dropped into the 2.7 mm pore on LB-medium plates and incubated at 37°C for 24 h as shown in Figure S3 for moricin family. The measure unit is millimeter (mm). […] Differences were significant at *P<0.01 among each recombinant AMP family.
B. mori strain Dazao was from the Sericulture & Agri-Food Research Institute, Guangdong Academy of Agricultural Sciences, China. E. coli Rosetta™(DE3) strain was used to express recombinant AMPs. […]
Antimicrobial activity of purified expression products was assayed using the ultrasensitive radial diffusion method and the MICs method seeded with Gram-negative or Gram-positive bacteria. […] The size of the clear area around the bacteria was measured, as shown in Figure S3 for the moricin family. […] Absorbance at 595 nm was measured and was repeated three times, and the MICs determined when the average absorbance was equal to the control sample.

Another assay relates to X. pv. campestris. The assay can be described thus: Ultrasensitive radial diffusion. The class given is cell-based, Xanthomons pv. campestris. As to conditions: 5 µmol/L, 10 µL, 37°C 24 h (Fig. 3).

“MNFVKILCVVLALMLALSMASAALEPKRKVFKIIEKIGRNVRGGVITAGPAVVVVGQAASVGM [BmcecC, recombinant silkworm cecropin paralog, C subtype, two extra N-terminal residues (Ala-Met)]”: the “antimicrobial spectrum among the ten tested bacteria” value in assay [1] was “no ability to inhibit the growth”. As to “MNILKLFLVFMVAMSLVSCSTAAPAKIP--IKAIKTVGKAVGKGLRAINIASTANDVFNFLKPKKRKH [Bmmor, recombinant silkworm moricin, two extra N-terminal residues (Ala-Met)]”, in the assay on R. dolaanacearum, the “Minimal growth inhibition concentration (MIC), R. dolaanacearum” value amounted to 1.25 µM. For the same substance, in assay [1], the “antimicrobial spectrum among the ten tested bacteria” value is “nine of ten tested bacteria”. With “MNFAKILSFVFALVLALSMTSAAPEPRWKIFKKIEKMGRNIRDGIVKAGPAIEVLGSAKAIGK [BmcecB6, recombinant silkworm cecropin paralog representing B subtype, two extra N-terminal residues (Ala-Met)]”, the “antimicrobial spectrum among the ten tested bacteria” value in assay [1] is listed as “eight of ten tested bacteria”. Moreover, the “antimicrobial activity against S. aureus” value with S. aureus is “not inhibited”. In addition, the “antimicrobial activity against X. pv. campestris” value in the assay on X. pv. campestris is listed as “not inhibited”. For the substance “MNFVRILSFVFALVLALGAVSAAPEPRWKLFKKIEKVGRNVRDGLIKAGPAIAVIGQAKSLGK [BmcecA1, recombinant silkworm cecropin paralog, A subtype, EK-digested, two extra N-terminal residues (Ala-Met)]”, in assay [1], the “antimicrobial spectrum among the ten tested bacteria” value is “five of ten tested bacteria”. For “MDFLKYFIVVLVALSLMVCSGQADPKIP--VKSLKKGGKIIAKGFKVLTAAGTAHEVYSHVRNRGNQG [BmmorLA1, recombinant silkworm moricin-like A1, two extra N-terminal residues (Ala-Met)]”, the “Minimal growth inhibition concentration (MIC), R. dolaanacearum” value in the assay with R. dolaanacearum stood at 1.25 µM. Turning to “MNFSRALFYVFAVFLVCASVMAAPEPRWKIFKKIEKVGQNIRDGIIKAGPAVAVVGQAATIAHGK [BmcecE, recombinant silkworm cecropin paralog, E subtype, two extra N-terminal residues (Ala-Met)]”, in assay [1], the “antimicrobial spectrum among the ten tested bacteria” value was “five of ten tested bacteria”.
